Experimental data: patent US20130023555A1, “KINASE INHIBITOR WITH IMPROVED SOLUBILITY PROFILE” (Abbott Laboratories, priority 2011, published 2013)

Key:
[1] = biological target: T1, FLT3 (Homo sapiens, UniProt P36888); assay: HTRF in vitro kinase assay, FLT3; type: biochemical; details: 1 mM ATP
T1 construct: FLT3 Q569- S993; M-His(6) (N)
T1 sequence (P36888 569-993): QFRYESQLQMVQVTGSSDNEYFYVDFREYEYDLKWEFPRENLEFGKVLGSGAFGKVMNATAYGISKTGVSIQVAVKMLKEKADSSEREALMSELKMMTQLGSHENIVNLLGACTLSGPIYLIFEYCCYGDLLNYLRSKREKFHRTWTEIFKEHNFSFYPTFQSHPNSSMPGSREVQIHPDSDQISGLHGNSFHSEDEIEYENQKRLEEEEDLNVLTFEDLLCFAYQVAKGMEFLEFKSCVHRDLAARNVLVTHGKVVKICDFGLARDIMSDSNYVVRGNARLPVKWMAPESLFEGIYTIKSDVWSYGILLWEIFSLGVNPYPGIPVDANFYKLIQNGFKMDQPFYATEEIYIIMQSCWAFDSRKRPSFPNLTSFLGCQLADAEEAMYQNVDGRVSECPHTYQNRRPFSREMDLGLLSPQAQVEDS
Description: To determine the activity of the various kinases, a homogenous time-resolved fluorescence (HTRF) in vitro kinase assay was used. (Mathis, G., HTRF(R) Technology. J Biomol Screen, 1999. 4(6): p. 309-314; Alfred J. Kolb, Paul V. Kaplita, David J. Hayes, Young-Whan Park, Christine Pernell, John S. Major and Gerard Mathis, Drug Discovery Today, 1998, 3, 333-342.)
For example for KDR, cKIT, FLT1, CSF1R and FTL3, purified enzyme was mixed with 0.5 μM N-biotinylated substrate (Biotin-Ahx-[…]-amide (SEQ. ID. 1)), various concentrations of inhibitor in reaction buffer (50 mM HEPES, pH 7.1, 10 mM MgCl2, 2 mM MnCl2, 0.1% BSA and 1 mM DTT, 40 μL final volume), ATP (1 mM final conc.) in a black 384-well plate. […] The quenched reaction was allowed to stand at room temperature for 3 hours and was then read in a time-resolved fluorescence detector (InVision, Perkin-Elmer) at 620 nm and 665 nm sequentially with excitation. The ratio between the signal of 620 nm and 665 nm was used in the calculation of the IC50.

[2] = biological target: T2, Aurora A (Homo sapiens, UniProt O14965); assay: Aurora A enzyme assay (time-resolved fluorescence); type: biochemical; details: 1 mM ATP
T2 sequence (O14965 1-403): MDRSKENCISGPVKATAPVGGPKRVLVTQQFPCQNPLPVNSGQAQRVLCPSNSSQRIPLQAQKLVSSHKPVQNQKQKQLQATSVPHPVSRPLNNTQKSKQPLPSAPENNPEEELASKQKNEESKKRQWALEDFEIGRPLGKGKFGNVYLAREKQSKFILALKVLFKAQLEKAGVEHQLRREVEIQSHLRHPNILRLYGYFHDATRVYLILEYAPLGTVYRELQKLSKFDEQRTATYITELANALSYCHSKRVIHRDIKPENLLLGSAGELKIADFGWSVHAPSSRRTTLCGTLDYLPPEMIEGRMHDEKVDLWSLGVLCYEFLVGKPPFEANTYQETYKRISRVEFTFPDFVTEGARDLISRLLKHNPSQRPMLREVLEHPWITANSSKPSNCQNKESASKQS
Description: After 1 hour, the reaction was stopped with EDTA and anti-phospho-STK antibody Europium Cryptate (Upstate) and SA-XL665 (Upstate) were added to detect the phosphopeptide. The amount of phosphorylation was determined by the time-resolved fluorescence ratio of signals at 665 nm and 615 nm. The IC50s were calculated by an exponential fit of the inhibition values with the inhibitor concentrations using Assay Explorer software.

**Q.** For `CNC(=O)c1cnc(N)c2c(-c3ccc(NC(=O)Nc4cccc(C)c4)cc3)csc12` [Example 2, 4-amino-N-methyl-3-(4-{[(3-methylphenyl)carbamoyl]amino}phenyl)thieno[3,2-c]pyridine-7-carboxamide], which IC50 [1] is on record?
**A.** The IC50 was 2 nM.

**Q.** What about the IC50 [2] of the same compound?
**A.** The IC50 was 58 nM.
